Measured values as given in article PMC5539197, “CD14 is critical for TLR2-mediated M1 macrophage activation triggered by N-glycan recognition” (Scientific Reports, 2017).

Target: T1, ArtinM (Artocarpus integer, UniProt Q7M1T4)
T1 construct: tetramer
T1 sequence (Q7M1T4 1-149): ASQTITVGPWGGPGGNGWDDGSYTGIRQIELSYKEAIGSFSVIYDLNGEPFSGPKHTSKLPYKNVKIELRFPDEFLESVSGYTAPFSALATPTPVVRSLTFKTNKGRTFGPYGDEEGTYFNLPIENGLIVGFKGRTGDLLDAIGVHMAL
Assay: inhibition of lectin precipitation, western blot
Assay type: binding
Conditions: 1 mM trimannoside pre-incubated, 4 °C; lysate of HEK cells transfected with CD14 or TLR2; carbohydrate recognition site, competes with glycoprotein N-glycans
Method: inhibition of lectin precipitation, western blot on […] | CD14 and TLR2 were not detected when the procedure was carried out with […]

With `OC[C@H]1O[C@H](OC[C@H]2OC(O)[C@@H](O)[C@@H](O[C@H]3O[C@H](CO)[C@@H](O)[C@H](O)[C@@H]3O)[C@@H]2O)[C@@H](O)[C@@H](O)[C@@H]1O` (stereo partly shown) [Manα1-3(Manα1-6)Man] the “inhibition of lectin precipitation, western blot” value was “CD14 and TLR2 were not detected when the procedure was carried out with ArtinM”.
